This assay concerns the target T1, Complement C1s subcomponent (Homo sapiens, UniProt P09871).
T1 sequence (P09871 whole entry): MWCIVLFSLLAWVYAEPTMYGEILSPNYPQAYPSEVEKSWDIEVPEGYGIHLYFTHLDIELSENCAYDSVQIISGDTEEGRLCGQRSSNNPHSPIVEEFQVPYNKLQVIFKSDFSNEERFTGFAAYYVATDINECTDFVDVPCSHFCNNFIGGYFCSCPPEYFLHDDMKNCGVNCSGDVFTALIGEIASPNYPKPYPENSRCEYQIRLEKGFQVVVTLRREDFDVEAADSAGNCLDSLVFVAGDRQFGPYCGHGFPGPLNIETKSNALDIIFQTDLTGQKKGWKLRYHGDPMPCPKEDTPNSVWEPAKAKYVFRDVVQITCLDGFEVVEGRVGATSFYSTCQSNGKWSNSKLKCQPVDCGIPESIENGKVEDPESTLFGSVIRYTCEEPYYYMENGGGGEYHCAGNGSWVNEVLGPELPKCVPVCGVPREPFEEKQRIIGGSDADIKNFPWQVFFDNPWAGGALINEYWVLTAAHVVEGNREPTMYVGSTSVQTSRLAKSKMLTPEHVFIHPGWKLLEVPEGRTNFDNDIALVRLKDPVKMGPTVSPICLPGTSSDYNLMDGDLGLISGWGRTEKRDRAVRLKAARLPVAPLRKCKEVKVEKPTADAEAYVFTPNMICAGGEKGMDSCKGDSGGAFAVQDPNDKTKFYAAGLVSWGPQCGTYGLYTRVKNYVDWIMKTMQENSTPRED
Put plainly: concentration-response of complement C1s inhibitors – biochemical, dose response (AID 787).

One may read the IC50 as the concentration needed to halve the response being measured. Read a low IC50 as greater potency in that assay. Molecule `O=C1CS/C(=N\c2ccc(O)cc2)N1c1ccc(O)cc1` [MLS000027731] yielded an IC50 greater than 50 µM. To `O=C(Nc1nccs1)c1ccc(Cl)c(S(=O)(=O)N2CCOCC2)c1` [4-chloranyl-3-morpholin-4-ylsulfonyl-N-(1,3-thiazol-2-yl)benzamide] belongs greater than 50 µM. To `COc1ccc(CC(=O)OCc2cc3ccccc3[nH]c2=O)cc1` [(2-oxidanylidene-1H-quinolin-3-yl)methyl 2-(4-methoxyphenyl)ethanoate] belongs greater than 50 µM. For the molecule `COCCCNC(CC(=O)Nc1ccccc1C(=O)OC)C(=O)O` (stereo unspecified) [4-(2-carbomethoxyanilino)-4-keto-2-(3-methoxypropylamino)butyric acid], the half-maximal inhibitory concentration (IC50) was greater than 50 µM. In turn, `O=C(c1csc2ccccc12)n1cccn1` [MLS000065687] returned an IC50 of 14.9 µM. As for `COc1ccc(NC(=O)C2CCC(=O)N2S(=O)(=O)c2ccc(C)cc2)c(OC)c1` (stereo unspecified) [MLS000050140], the figure is greater than 50 µM. To `O=C(Nc1nccs1)c1ccc(Cl)c(S(=O)(=O)N2CCCCC2)c1` [4-chloranyl-3-piperidin-1-ylsulfonyl-N-(1,3-thiazol-2-yl)benzamide] belongs greater than 50 µM; to `CCc1c(C(=O)NCc2cnn(C)c2)csc1C` [4-ethyl-5-methyl-N-[(1-methyl-1H-pyrazol-4-yl)methyl]-3-thiophenecarboxamide], greater than 50 µM; to `COC(=O)Cc1n[nH]c2c1C1(C(=O)N(Cc3ccccc3)c3ccccc31)C(C#N)C(=N)O2` (stereo unspecified) [2-[6-amino-5-cyano-2'-oxo-1'-(phenylmethyl)-3-spiro[2H-pyrano[2,3-c]pyrazole-4,3'-indole]yl]acetic acid methyl ester], greater than 50 µM. As for `Cc1ccc(-c2cc(C(=O)NCc3ccccn3)no2)cc1` [5-(4-methylphenyl)-N-(2-pyridinylmethyl)-3-isoxazolecarboxamide], the figure is greater than 50 µM; as for `CCSc1ccccc1C(=O)n1nnc2ccccc21`, 31 µM; as for `COc1ccc2c(c1)CCc1c(C(=O)NCc3ccc(F)cc3)noc1-2` [MLS000116425], greater than 50 µM. In the case of `CCOC(=O)c1ccc(CSc2nncn2N)o1` [5-[[(4-amino-1,2,4-triazol-3-yl)thio]methyl]-2-furancarboxylic acid ethyl ester], the IC50 was greater than 50 µM.

`CCCC(=O)Nc1ccc(C(=O)n2nnc3ccccc32)cc1` [N-[4-(1H-1,2,3-benzotriazol-1-ylcarbonyl)phenyl]butanamide] showed an IC50 of 0.38 µM. As for `Cc1ccc(NS(=O)(=O)c2cc(C(=O)N3CCOCC3)ccc2C)cc1C` [MLS000066131], the figure is greater than 50 µM; as for `Cn1c(Cn2c(=O)sc3ccccc32)nnc1SCC(=O)NCc1ccccc1Cl` [MLS000118585], greater than 50 µM.

`O=C(NC1CCCC1)c1cccc(S(=O)(=O)N2CCCCC2)c1` [MLS000065413] came in with a half-maximal inhibitory concentration (IC50) greater than 50 µM. `O=C(Oc1ccc(-n2cnnn2)cc1)c1ccco1` [2-furancarboxylic acid [4-(1-tetrazolyl)phenyl] ester]: the IC50 is greater than 50 µM. As for `Cc1ccc(Cn2ncc3c(N4CCN(c5ccccc5C)CC4)ncnc32)cc1` [1-(4-methylbenzyl)-4-[4-(2-methylphenyl)-1-piperazinyl]-1H-pyrazolo[3,4-d]pyrimidine], the figure is greater than 50 µM; as for `COCCn1c(C)cc(C(=O)CSc2nc3ccccc3o2)c1C` [2-(1,3-benzoxazol-2-ylsulfanyl)-1-[1-(2-methoxyethyl)-2,5-dimethyl-pyrrol-3-yl]ethanone], greater than 50 µM; as for `Cc1sc2nc(-c3ccco3)oc(=O)c2c1C` [2-(2-furanyl)-5,6-dimethyl-4-thieno[2,3-d][1,3]oxazinone], greater than 50 µM.

For the molecule `O=C1CCCC(=O)C1=CNCCc1ccccc1` [MLS000108318], the IC50 is greater than 50 µM.

With `CSc1nc(-c2ccco2)nn1C(=O)c1ccco1` [2-furanyl-[3-(2-furanyl)-5-(methylthio)-1,2,4-triazol-1-yl]methanone], the 50% inhibitory concentration (IC50) is 4.88 µM. To `O=c1cc(-c2ccccc2)[nH]c2nc(-c3ccccc3)nn12` [MLS000037061] belongs greater than 50 µM; to `CCOC(=O)N1CCN(C(=O)CN(c2cccc(C)c2)S(=O)(=O)c2ccc(C)cc2)CC1` [4-[2-(3-methyl-N-(4-methylphenyl)sulfonylanilino)-1-oxoethyl]-1-piperazinecarboxylic acid ethyl ester], greater than 50 µM; to `CC(=O)c1cn(CC(=O)NCc2ccc3c(c2)OCO3)c2ccccc12` [2-(3-acetyl-1-indolyl)-N-(1,3-benzodioxol-5-ylmethyl)acetamide], greater than 50 µM.

`CCc1ccc(C2CC(c3ccccc3Cl)Nc3nc(N)nn32)cc1` (stereo unspecified) [5-(2-chlorophenyl)-7-(4-ethylphenyl)-1,5,6,7-tetrahydro-[1,2,4]triazolo[1,5-a]pyrimidin-2-amine] displayed an IC50 greater than 50 µM.

`O=C(NCCc1ccccc1)c1noc2c1CCc1ccccc1-2` [MLS000087424] yielded a half-inhibitory concentration (IC50) of 14 µM.

Turning to `COc1ccc(NC(=O)CSC2=NC3=C(C(=O)CCC3)C(c3ccco3)C2C#N)c(OC)c1` (stereo unspecified) [SMR000042323], the IC50 was greater than 50 µM. As for `CC1CCN(S(=O)(=O)c2cccc(C(=O)Nc3nccs3)c2)CC1` [3-(4-methylpiperidin-1-yl)sulfonyl-N-(1,3-thiazol-2-yl)benzamide], the figure is greater than 50 µM; as for `COc1ccc(NC(=O)CSC2CCCCC2)cc1` [2-(cyclohexylthio)-N-(4-methoxyphenyl)acetamide], greater than 50 µM.

`O=C(NCc1ccco1)c1cccc(S(=O)(=O)N2CCCCC2)c1` [MLS000065416] showed an IC50 greater than 50 µM. `CCOC(=O)Cc1nnc(NC(=O)C(CC)Sc2nnc3c4ccccc4n(C)c3n2)s1` (stereo unspecified) [2-[5-[2-[(5-methyl-[1,2,4]triazin[5,6-b]indol-3-yl)thio]butanoylamino]-1,3,4-thiadiazol-2-yl]acetic acid ethyl ester] gave an IC50 greater than 50 µM. To `CCOC(=O)c1c(C)n(C(=O)c2ccco2)c(=O)n1C(=O)c1ccco1` belongs 8.54 µM; to `COc1ccc(C(=O)SC2=NCCS2)cc1OC` [3,4-dimethoxybenzenecarbothioic acid S-(4,5-dihydrothiazol-2-yl) ester], greater than 50 µM. `CCOC(=O)N1CCC2=C(C#N)C(=N)C(C#N)(C#N)[C@H](c3ccccc3OCC)[C@H]2C1` [(8R,8aR)-6-amino-5,7,7-tricyano-8-(2-ethoxyphenyl)-1,3,8,8a-tetrahydroisoquinoline-2-carboxylic acid ethyl ester] registered an IC50 greater than 50 µM. Take `CCOC(=O)C1CCN(C(=O)CSc2ccccc2)CC1` [1-[1-oxo-2-(phenylthio)ethyl]-4-piperidinecarboxylic acid ethyl ester]: the IC50 is greater than 50 µM. As for `COc1cccc(NC(=O)CCP(C)(=O)O)c1` [MLS000079835], the figure is greater than 50 µM; as for `CCC(=O)Nc1ccc(C(=O)Nc2ccc3c(c2)OCO3)cc1` [MLS000085289], greater than 50 µM.

Consider `Cc1cc(OC(=O)c2ccccc2)n(CCC#N)n1` [[2-(2-cyanoethyl)-5-methyl-pyrazol-3-yl] benzoate], for which it took 2.14 µM to reach half-maximal inhibition (IC50). As for `Oc1cccc(C(=S)N2CCN(Cc3ccccc3)CC2)c1` [(3-hydroxyphenyl)-[4-(phenylmethyl)-1-piperazinyl]methanethione], the figure is greater than 50 µM; as for `O=C(Nc1nc(-c2cccs2)cs1)c1cccc(S(=O)(=O)N2CCCCC2)c1` [3-(1-piperidinylsulfonyl)-N-(4-thiophen-2-yl-2-thiazolyl)benzamide], greater than 50 µM. For `CCOC(=O)c1c(-c2ccc(C)o2)csc1NC(=O)CN1CCN(CC)CC1` [2-[[2-(4-ethyl-1-piperazinyl)-1-oxoethyl]amino]-4-(5-methyl-2-furanyl)-3-thiophenecarboxylic acid ethyl ester], the IC50 is greater than 50 µM.

Turning to `CC1(C)C(c2ccccc2)=NC(c2cccnc2)N1O` (stereo unspecified) [3-(1-hydroxy-5,5-dimethyl-4-phenyl-2H-imidazol-2-yl)pyridine], the IC50 is greater than 50 µM.

With `CCOc1ccc2[nH]c3c(N4CCN(c5ccccn5)CC4)ncnc3c2c1` [SMR000044529], the IC50 is greater than 50 µM.

With `Cc1noc(C)c1COC(=O)c1ccccc1NC(=O)Cc1ccccc1` [(3,5-dimethyl-1,2-oxazol-4-yl)methyl 2-(2-phenylethanoylamino)benzoate], the IC50 is greater than 50 µM.

Consider `CC1(C)COCN1S(=O)(=O)c1ccc(C(=O)Nc2nnc(-c3ccc(Cl)s3)o2)cc1` [MLS000086346], for which the IC50 was greater than 50 µM. `O=C(Cc1ccc(-c2ccccc2)cc1)NCCN1CCOCC1` [2-Biphenyl-4-yl-N-(2-morpholin-4-yl-ethyl)-acetamide] registered an IC50 greater than 50 µM. `CCOc1ccc(-n2c(O)cc(N3CCN(c4ccccc4F)CC3)c2O)cc1` [1-(4-ethoxyphenyl)-3-[4-(2-fluorophenyl)-1-piperazinyl]-2,5-pyrrolidinedione] displayed an IC50 greater than 50 µM. `O=C(NCc1cccs1)c1cccc(S(=O)(=O)N2CCCCC2)c1` [3-(1-piperidinylsulfonyl)-N-(thiophen-2-ylmethyl)benzamide]: the IC50 was greater than 50 µM. To `O=C(Nc1nc(-c2cccs2)cs1)c1cccc(S(=O)(=O)N2CCCCCC2)c1` [3-(1-azepanylsulfonyl)-N-(4-thiophen-2-yl-2-thiazolyl)benzamide] belongs greater than 50 µM.

(Values after BindingDB's records for doi:10.7270/Q2MP51PC (Pcmd, 2008).)
